Results published in ChEMBL document CHEMBL4138051, “Antimalarial drug discovery targeting apical membrane antigen 1” (Medchemcomm, 2017).

Target: T1, Apical membrane antigen 1 (Plasmodium falciparum, UniProt Q94661)
T1 sequence (Q94661 whole entry): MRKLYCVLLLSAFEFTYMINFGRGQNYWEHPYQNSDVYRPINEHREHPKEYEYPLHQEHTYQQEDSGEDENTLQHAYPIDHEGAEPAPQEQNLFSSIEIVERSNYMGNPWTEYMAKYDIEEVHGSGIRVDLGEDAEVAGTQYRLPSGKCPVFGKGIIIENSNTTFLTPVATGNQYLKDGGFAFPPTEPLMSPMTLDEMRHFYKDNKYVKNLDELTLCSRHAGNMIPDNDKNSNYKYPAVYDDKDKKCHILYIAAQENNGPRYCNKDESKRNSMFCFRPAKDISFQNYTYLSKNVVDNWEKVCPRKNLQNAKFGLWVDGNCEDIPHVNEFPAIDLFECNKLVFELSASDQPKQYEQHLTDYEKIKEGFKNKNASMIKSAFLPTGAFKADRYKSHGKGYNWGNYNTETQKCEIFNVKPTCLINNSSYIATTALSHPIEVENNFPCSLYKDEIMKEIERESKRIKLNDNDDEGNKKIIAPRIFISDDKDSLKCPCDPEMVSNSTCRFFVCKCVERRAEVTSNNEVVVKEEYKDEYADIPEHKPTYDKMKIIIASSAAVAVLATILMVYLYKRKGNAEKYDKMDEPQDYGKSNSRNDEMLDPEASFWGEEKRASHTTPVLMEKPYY
Experiment: Displacement of 5-FAM-Ahx-ALPLFSKFGSRMH from Plasmodium falciparum AMA1 by fluorescence anisotropy assay

Question: For `COc1ccc(CN2CC(OCc3ccccc3F)CN(C(=O)CCc3c(C)nc4ncnn4c3C)CC2=O)cc1` (stereo unspecified), which IC50 is on record?
Answer: 24 µM
